Experiment [1] concerns C. parapsilosis ATCC 22019. As to the kind of experiment: Anti-Fungal (Candida) Activity Assay, broth microtiter MIC. Particulars: Lodderomyces parapsilosis, ATCC22019; 3 replicates, MIC recorded at 48 h; read-out: MIC C. parapsilosis ATCC 22019. The experiment is classed as cell-based. An outline of the steps:
(§1)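 Test compounds were dissolved in DMSO at 1 mg/mL (stock) and challenged against direct colony suspensions in RPMI 1640 with MOPS under CLSI M27-A3 broth microdilution. Growth was judged by eye relative to drug-free control after 48 h.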

A further experiment has as its system C. krusei ATCC 6258. The description is as above. The experiment is classed as cell-based. Particulars: Pichia kudriavzevii, ATCC6258; 3 replicates, MIC recorded at 48 h; read-out: MIC C. krusei ATCC 6258. The method in brief:
as §1

Another experiment relates to C. albicans ATCC 90028. Described as above. The class given is cell-based. Particulars: ATCC90028, 3 replicates, MIC recorded at 48 h, read-out: MIC C. albicans ATCC 90028. An outline of the steps:
as §1

The next experiment addresses human (hACC2) ACC2 (Homo sapiens, UniProt O00763). As to the kind of experiment: In vitro Acetyl-CoA Carboxylase (ACC) inhibition assay (ADP-Glo), hACC2. The experiment is classed as biochemical. The protocol: The detailed procedure is as follows. […] 10 μL ADP glo reagent was added. […] 20 μL kinase detection reagent was added.
“NA” stands for “not assayed.”

Experiment [2] deals with Phytophthora capsici (Pc). As to the kind of experiment: Growth inhibition assay of fungal pathogens. Particulars: 48 hours; for IC90: Phytophthora capsici, read-out: Concentration at 90% Inhibition Pc. The experiment is classed as cell-based. The method in brief: (§2)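 Liquid-culture assay in which test compounds are applied at three final concentrations (50, 10, 2 ppm or 2, 0.4, 0.08 ppm). Inoculum levels follow 48 h growth curves for each fungus. Growth is monitored by OD600 and by eye, and the 48 h values give % inhibition against DMSO.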

Experiment [3] deals with Collectotrichum graminicola (Cg). In words: Growth inhibition assay of fungal pathogens. The class given is cell-based. Particulars: 48 h, read-out: Concentration at 90% Inhibition Cg. An outline of the steps:
as §2

Experiment [4] concerns Fusarium moniliforme (Fm). As to the kind of experiment: Growth inhibition assay of fungal pathogens. Particulars: 48 hours; for IC90: Fusarium verticillioides, 48 h, read-out: Concentration at 90% Inhibition Fm. The experiment is classed as cell-based. An outline of the steps: as §2
Another experiment relates to Septoria tritici (St). As to the kind of experiment: Growth inhibition assay of fungal pathogens. The experiment is classed as cell-based. Particulars: 48 hours; for IC90: Zymoseptoria tritici, read-out: Concentration at 90% Inhibition St. An outline of the steps:
as §2

Experiment [5] relates to Fusarium virguliforme (Fv). In words: Growth inhibition assay of fungal pathogens. The class given is cell-based. Particulars: 48 h, 48 hours, read-out: Concentration at 90% Inhibition Fv. The method in brief:
as §2

A further experiment relates to Diplodia maydis (Dm). As to the kind of experiment: Growth inhibition assay of fungal pathogens. The experiment is classed as cell-based. Particulars: Stenocarpella maydis, 48 h, read-out: Concentration at 90% Inhibition Dm. An outline of the steps: as §2
The subject of a further experiment is Rhizoctonia solani (Rs). In words: Growth inhibition assay of fungal pathogens. The experiment is classed as cell-based. Particulars: 48 h, read-out: Concentration at 90% Inhibition Rs. An outline of the steps: as §2
For another experiment, the system named is Botrtyis cinerea (Bc). As to the kind of experiment: Growth inhibition assay of fungal pathogens. The experiment is classed as cell-based. Particulars: 48 h, read-out: Concentration at 90% Inhibition Bc. The method in brief:
as §2

The target in the next experiment is fungal (fACC2) ACC2 (UniProt Q00955). Particulars: read-out: fACC2 IC50; fungal ACC2, ADP-Glo. For orientation: In ADP-Glo the light output rises with the ADP produced.
Sequence of fungal (fACC2) ACC2 (Q00955 whole entry): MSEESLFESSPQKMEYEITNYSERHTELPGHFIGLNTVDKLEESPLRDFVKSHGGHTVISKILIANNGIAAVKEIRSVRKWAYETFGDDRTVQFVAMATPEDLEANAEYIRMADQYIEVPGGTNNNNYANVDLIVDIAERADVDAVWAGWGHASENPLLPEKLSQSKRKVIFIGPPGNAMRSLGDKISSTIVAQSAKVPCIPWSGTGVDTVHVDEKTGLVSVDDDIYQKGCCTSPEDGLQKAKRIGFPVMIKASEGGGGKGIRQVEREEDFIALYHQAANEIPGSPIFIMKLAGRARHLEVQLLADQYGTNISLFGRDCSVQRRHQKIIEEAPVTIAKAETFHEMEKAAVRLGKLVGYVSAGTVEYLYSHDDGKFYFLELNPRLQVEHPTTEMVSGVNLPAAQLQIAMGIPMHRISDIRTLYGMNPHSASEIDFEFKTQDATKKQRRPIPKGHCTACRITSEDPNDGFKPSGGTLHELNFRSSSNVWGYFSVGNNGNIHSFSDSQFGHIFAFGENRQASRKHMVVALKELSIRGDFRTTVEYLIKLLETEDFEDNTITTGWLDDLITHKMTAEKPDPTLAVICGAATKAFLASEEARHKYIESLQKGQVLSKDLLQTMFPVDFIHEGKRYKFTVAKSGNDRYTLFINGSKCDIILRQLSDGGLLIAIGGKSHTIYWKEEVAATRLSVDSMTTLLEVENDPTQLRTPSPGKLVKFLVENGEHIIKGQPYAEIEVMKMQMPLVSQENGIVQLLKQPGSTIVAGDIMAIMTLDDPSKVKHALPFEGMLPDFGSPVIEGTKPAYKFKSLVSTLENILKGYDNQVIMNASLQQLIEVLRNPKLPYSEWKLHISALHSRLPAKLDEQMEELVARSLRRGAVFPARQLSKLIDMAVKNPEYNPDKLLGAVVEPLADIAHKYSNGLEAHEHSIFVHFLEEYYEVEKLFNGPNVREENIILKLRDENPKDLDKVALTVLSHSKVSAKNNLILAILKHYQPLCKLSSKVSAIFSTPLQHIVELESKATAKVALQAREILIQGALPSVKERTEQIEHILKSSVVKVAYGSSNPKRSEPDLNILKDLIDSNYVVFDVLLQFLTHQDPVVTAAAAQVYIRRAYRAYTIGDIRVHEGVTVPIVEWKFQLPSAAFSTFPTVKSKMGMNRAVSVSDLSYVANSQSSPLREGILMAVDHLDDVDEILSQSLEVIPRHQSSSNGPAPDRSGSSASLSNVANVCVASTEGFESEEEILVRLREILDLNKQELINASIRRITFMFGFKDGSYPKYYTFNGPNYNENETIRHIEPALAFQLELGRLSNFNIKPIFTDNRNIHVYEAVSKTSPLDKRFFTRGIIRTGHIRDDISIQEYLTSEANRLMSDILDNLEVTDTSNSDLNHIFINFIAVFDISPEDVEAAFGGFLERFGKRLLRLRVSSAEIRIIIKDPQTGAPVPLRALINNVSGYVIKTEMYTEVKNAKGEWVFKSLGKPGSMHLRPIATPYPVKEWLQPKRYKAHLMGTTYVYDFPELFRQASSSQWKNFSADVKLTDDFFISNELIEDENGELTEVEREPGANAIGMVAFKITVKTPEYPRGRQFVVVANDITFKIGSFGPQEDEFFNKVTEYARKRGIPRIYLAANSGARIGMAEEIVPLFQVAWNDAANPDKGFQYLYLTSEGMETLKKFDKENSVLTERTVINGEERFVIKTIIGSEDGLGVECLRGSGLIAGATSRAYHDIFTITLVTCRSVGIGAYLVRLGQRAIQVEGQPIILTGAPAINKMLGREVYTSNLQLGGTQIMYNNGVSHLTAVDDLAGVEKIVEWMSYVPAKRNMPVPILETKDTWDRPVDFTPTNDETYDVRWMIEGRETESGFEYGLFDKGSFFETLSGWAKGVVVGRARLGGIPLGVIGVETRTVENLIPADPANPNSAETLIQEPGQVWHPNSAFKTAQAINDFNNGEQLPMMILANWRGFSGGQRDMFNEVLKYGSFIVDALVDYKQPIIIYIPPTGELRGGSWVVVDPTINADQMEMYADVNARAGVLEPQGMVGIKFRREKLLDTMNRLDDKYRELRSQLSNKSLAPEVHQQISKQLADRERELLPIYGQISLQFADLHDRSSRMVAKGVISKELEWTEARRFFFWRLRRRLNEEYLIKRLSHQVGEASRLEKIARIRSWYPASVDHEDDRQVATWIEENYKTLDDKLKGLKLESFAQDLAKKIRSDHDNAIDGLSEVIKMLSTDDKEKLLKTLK

Structures are written as SMILES. pIC50: −log10 of the molar value. Converted amounts (≈) assume the structure as drawn. Read-outs that look alike come from different tables or passages of the source. Where only a bound is given, the exact number is not on record here.

Sequence of human (hACC2) ACC2 (O00763 whole entry): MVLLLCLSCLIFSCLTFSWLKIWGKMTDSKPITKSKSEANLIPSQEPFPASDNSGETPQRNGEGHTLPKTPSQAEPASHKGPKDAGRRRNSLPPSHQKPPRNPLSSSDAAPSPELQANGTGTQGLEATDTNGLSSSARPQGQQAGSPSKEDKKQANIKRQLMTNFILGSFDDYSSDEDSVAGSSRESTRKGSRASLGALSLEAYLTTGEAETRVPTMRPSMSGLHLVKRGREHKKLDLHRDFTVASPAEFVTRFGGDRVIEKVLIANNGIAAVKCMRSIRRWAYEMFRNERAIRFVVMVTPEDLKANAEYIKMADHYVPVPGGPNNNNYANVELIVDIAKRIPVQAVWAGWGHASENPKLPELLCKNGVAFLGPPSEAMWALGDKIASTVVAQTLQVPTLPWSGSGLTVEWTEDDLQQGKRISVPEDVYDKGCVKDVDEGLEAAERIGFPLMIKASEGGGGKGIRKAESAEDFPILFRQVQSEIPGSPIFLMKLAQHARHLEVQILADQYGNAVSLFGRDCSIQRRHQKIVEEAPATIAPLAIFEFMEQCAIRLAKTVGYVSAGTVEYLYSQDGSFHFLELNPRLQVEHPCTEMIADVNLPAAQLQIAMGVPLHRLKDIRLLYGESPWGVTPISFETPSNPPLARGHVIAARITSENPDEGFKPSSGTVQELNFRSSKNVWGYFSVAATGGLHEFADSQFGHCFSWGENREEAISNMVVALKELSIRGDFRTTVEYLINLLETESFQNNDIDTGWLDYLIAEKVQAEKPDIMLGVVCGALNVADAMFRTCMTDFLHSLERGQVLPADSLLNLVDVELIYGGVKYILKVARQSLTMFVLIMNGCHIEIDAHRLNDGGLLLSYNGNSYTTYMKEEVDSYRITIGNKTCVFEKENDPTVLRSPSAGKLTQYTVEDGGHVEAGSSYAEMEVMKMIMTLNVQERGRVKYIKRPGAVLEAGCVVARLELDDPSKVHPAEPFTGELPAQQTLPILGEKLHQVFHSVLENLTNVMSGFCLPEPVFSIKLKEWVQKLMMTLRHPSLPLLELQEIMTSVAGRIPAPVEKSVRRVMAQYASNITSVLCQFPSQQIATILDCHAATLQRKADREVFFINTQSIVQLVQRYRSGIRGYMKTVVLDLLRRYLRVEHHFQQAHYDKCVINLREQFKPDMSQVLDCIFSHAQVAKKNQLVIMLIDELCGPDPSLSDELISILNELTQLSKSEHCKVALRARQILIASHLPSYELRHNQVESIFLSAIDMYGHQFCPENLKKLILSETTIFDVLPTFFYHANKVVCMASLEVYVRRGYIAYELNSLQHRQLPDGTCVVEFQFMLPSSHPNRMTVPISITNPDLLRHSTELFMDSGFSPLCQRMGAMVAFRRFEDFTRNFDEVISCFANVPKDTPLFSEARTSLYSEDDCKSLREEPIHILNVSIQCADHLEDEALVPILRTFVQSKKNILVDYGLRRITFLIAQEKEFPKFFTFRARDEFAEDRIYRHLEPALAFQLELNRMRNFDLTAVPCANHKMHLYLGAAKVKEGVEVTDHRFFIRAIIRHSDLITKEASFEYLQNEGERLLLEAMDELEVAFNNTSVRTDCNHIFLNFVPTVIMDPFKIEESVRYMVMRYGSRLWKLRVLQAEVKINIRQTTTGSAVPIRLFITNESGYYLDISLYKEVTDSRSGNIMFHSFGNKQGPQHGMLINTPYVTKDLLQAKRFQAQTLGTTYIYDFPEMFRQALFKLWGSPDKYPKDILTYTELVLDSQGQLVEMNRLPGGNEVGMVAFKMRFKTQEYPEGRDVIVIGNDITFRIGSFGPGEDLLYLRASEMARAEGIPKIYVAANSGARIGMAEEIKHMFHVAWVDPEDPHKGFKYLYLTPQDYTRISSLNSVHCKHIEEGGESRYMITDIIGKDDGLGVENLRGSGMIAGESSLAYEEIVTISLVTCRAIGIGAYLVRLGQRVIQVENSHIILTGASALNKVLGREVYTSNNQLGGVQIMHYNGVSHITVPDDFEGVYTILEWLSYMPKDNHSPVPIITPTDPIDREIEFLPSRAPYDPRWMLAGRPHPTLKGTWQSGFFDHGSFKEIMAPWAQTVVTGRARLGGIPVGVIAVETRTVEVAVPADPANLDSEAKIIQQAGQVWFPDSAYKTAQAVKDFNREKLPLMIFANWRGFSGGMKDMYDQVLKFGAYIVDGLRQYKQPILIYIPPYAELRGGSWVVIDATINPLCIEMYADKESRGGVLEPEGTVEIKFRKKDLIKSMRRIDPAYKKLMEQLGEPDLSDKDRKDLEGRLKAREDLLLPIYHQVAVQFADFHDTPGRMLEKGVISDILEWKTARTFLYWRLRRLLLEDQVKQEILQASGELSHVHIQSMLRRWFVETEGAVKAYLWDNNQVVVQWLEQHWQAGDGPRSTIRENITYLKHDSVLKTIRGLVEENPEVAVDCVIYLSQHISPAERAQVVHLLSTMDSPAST
Experimental for fungal (fACC2) ACC2: An exemplary procedure for the in vitro ACC inhibition assay, which can be used to determine the inhibitory action of compounds of the invention toward either human (hACC2) or fungal (fACC2) ACC2, follows. The ADP-Glo™ Kinase Assay kit from Promega was used. The ADP-Glo™ Kinase Assay is a luminescent ADP detection assay to measure enzymatic activity by quantifying the amount of ADP produced during an enzyme reaction. The assay is performed in two steps; first, after the enzyme reaction, an equal volume of ADP-Glo™ Reagent is added to terminate the reaction and deplete the remaining ATP. Second, the Kinase Detection Reagent is added to simultaneously convert ADP to ATP and allow the newly synthesized ATP to be measured using a luciferase/luciferin reaction. Luminescence can be correlated to ADP concentrations by using an ATP-to-ADP conversion curve. The detailed procedure is as follows. 50 μL of the compound being tested (600 μM in DMSO) was added to a 384-well dilution plate. The compound was diluted 1:3 in succession in DMSO for each row for 11 wells. 0.5 μL ACC2 working solution was added to 384-well white Optiplate assay plate. 0.5 μL diluted compound solution in each column from step 2 was added to assay plate, each row containing 2 replicates. […] The plates were incubated at room temperature for 15 minutes. 5 μL substrate working solution was added to each well to initiate reaction. Final ACC2 reaction concentrations consist of: 5 nM ACC2, 20 μM ATP, 20 μM acetyl-CoA, 12 mM NaHCO3, 0.01% Brij35, 2 mM DTT, 5% DMSO, test compound concentrations: 30 μM, 10 μM, 3.33 μM, 1.11 μM, 0.37 μM, 0.123 μM, 0.0411 μM, 0.0137 μM, 0.00457 μM, 0.00152 μM, and 0.00051 μM. Plates were incubated at room temperature for 60 minutes. 10 μL ADP glo reagent was added. Plates were incubated at room temperature for 40 minutes. 20 μL kinase detection reagent was added. Plates were incubated at room temperature for 40 minutes, and then read on a Perkin Elmer EnVision 2104 plate reader for luminescence as Relative Light Units (RLU).
Data for each concentration, as well as the positive and negative controls were averaged, and the standard deviation calculated. Percent inhibition was calculated by the formula: 100×(average negative control−compound)/(average negative control−average positive control). The IC50 for each compound was calculated by fitting the data with a non-linear regression equation: Y=Bottom+(Top-Bottom)/(1+10^((Log IC50−X)*Hill Slope)), where X is the log of compound concentration and Y is percent inhibition.
Compounds having an activity designated as “AA” provided an IC50 0.0006-0.003 μM; provided an “A” provided an IC50 0.003-0.01 μM; compounds having an activity designated as “B” provided an IC50 0.01-0.04 μM; and compounds having an activity designated as “C” provided an IC50>0.04 μM IC50. “NA” stands for “not assayed.”

What is called MIC is the least concentration at which growth counts as inhibited. In general, pIC50 refers to the negative decadic logarithm of the IC50, by convention in mol/L. Turning to `COc1ccc(F)cc1[C@H](Cn1c(=O)n(C(C)(C)C(=O)N2CCCC2)c(=O)c2c(C)c(-n3cccn3)sc21)OC(C)C` [Compound I-24, (R)-1-(2-(5-fluoro-2-methoxyphenyl)-2-isopropoxyethyl)-5-methyl-3-(2-methyl-1-oxo-1-(pyrrolidin-1-yl)propan-2-yl)-6-(1H-pyrazol-1-yl)thieno[2,3-d]pyrimidine-2,4(1H,3H)-dione], the minimum inhibitory concentration (MIC) in experiment [1] is over 4.1 mg/L; in the experiment with C. krusei ATCC 6258 it was 2.1 to 4 mg/L (≈ 3.51 to 6.69 µM); in the experiment on C. albicans ATCC 90028, over 4.1 mg/L. The figures for the negative-log IC50 (pIC50) at human (hACC2) ACC2 and on fungal (fACC2) ACC2 were 8.00 to 8.52 and 8.52 to 9.22, respectively. In addition, the IC90 in experiment [2] (Table 4a) is over 50 mg/L; in experiment [3] (Table 4a), 0.4 mg/L (≈ 0.669 µM); in experiment [3] (Table 4b), 0.4 mg/L (≈ 0.669 µM); in [4] (Table 4a) it was 0.08 mg/L (≈ 0.134 µM); with Septoria tritici (St) (Table 4a) it was over 50 mg/L; in [5] (Table 4a), 0.4 mg/L (≈ 0.669 µM). Besides, the IC90 in experiment [5] (Table 4b) came to 0.4 mg/L (≈ 0.669 µM); in the experiment on Diplodia maydis (Dm) (Table 4a) it was 2 mg/L (≈ 3.35 µM); with Diplodia maydis (Dm) (Table 4b), 2 mg/L (≈ 3.35 µM); in the experiment with Rhizoctonia solani (Rs) (Table 4a), 0.4 mg/L (≈ 0.669 µM); with Rhizoctonia solani (Rs) (Table 4b), 0.4 mg/L (≈ 0.669 µM); in the experiment with Botrtyis cinerea (Bc) (Table 4a), 0.4 mg/L (≈ 0.669 µM). Also, the IC90 in the experiment with Botrtyis cinerea (Bc) (Table 4b) turned out to be 0.4 mg/L (≈ 0.669 µM). Also, the “Concentration at 90% Inhibition Pc” value in [2] (Table 4b) was “D (“D” provided a compound concentration of >50 ppm at 90% inhibition of fungal pathogens)”. Further, the “Concentration at 90% Inhibition Fm” value in experiment [4] (Table 4b) was “A A”. In addition, in the experiment on Septoria tritici (St) (Table 4b), the “Concentration at 90% Inhibition St” value is listed as “D (“D” provided a compound concentration of >50 ppm at 90% inhibition of fungal pathogens)”.

In the case of `COc1ccc(F)cc1[C@H](Cn1c(=O)n(CC(=O)N2CCCC2)c(=O)c2c(C)c(-n3cccn3)sc21)OC(C)C` [Compound I-28, (R)-1-(2-(5-fluoro-2-methoxyphenyl)-2-isopropoxyethyl)-5-methyl-3-(2-oxo-2-(pyrrolidin-1-yl)ethyl)-6-(1H-pyrazol-1-yl)thieno[2,3-d]pyrimidine-2,4(1H,3H)-dione], the MIC (in [1]; in the experiment on C. krusei ATCC 6258; in the experiment with C. albicans ATCC 90028) was 0.25 to 1 mg/L (≈ 0.439 to 1.76 µM) in each case. The pIC50 is 7.40 to 8.00 against human (hACC2) ACC2 and 8.52 to 9.22 at fungal (fACC2) ACC2. For the same compound, the IC90 in [2] (Table 4a) is over 50 mg/L; in experiment [3] (Table 4a), over 50 mg/L; in experiment [3] (Table 4b) it was 10 mg/L (≈ 17.6 µM); in experiment [4] (Table 4a), 0.4 mg/L (≈ 0.702 µM); in experiment [4] (Table 4b), 0.4 mg/L (≈ 0.702 µM); in the experiment on Septoria tritici (St) (Table 4a) it was over 50 mg/L. For the same compound, the IC90 in experiment [5] (Table 4a) was 2 mg/L (≈ 3.51 µM); in [5] (Table 4b), 2 mg/L (≈ 3.51 µM); in the experiment on Diplodia maydis (Dm) (Table 4a), over 50 mg/L; in the experiment on Diplodia maydis (Dm) (Table 4b), over 50 mg/L; with Rhizoctonia solani (Rs) (Table 4a), 10 mg/L (≈ 17.6 µM); in the experiment on Rhizoctonia solani (Rs) (Table 4b) it was 2 mg/L (≈ 3.51 µM). Besides, the IC90 in the experiment with Botrtyis cinerea (Bc) (Table 4a) and in the experiment on Botrtyis cinerea (Bc) (Table 4b) was 2 mg/L (≈ 3.51 µM) in each case. Besides, in experiment [2] (Table 4b), the “Concentration at 90% Inhibition Pc” value is reported as “D (“D” provided a compound concentration of >50 ppm at 90% inhibition of fungal pathogens)”. In addition, in the experiment with Septoria tritici (St) (Table 4b), the “Concentration at 90% Inhibition St” value was “D (“D” provided a compound concentration of >50 ppm at 90% inhibition of fungal pathogens)”.

Consider `COCCO[C@@H](Cn1c(=O)n([C@H](C)C(=O)N2CCCC2)c(=O)c2c(C)c(-n3cccn3)sc21)c1cc(F)ccc1OC` [Compound I-76, 1-((R)-2-(5-fluoro-2-methoxyphenyl)-2-(2-methoxyethoxy)ethyl)-5-methyl-3-((R)-1-oxo-1-(pyrrolidin-1-yl)propan-2-yl)-6-(1H-pyrazol-1-yl)thieno[2,3-d]pyrimidine-2,4(1H,3H)-dione], for which the MIC (in [1]; in the experiment with C. krusei ATCC 6258; in the experiment on C. albicans ATCC 90028) was over 4.1 mg/L in each case. Besides, the pIC50 at human (hACC2) ACC2 is under 7.40; at fungal (fACC2) ACC2, 8.00 to 8.52. Also, the IC90 in [2] (Table 4b) was over 50 mg/L; in [3] (Table 4b) it was over 50 mg/L; in experiment [4] (Table 4b), 2 mg/L (≈ 3.34 µM); in the experiment with Septoria tritici (St) (Table 4b) it was over 50 mg/L; in experiment [5] (Table 4b) it was over 50 mg/L; with Diplodia maydis (Dm) (Table 4b), over 50 mg/L. The IC90 in the experiment with Rhizoctonia solani (Rs) (Table 4b) and with Botrtyis cinerea (Bc) (Table 4b) was over 50 mg/L each time.
